The record followed here is PMC6357863, “Dithiocarbamate-inspired side chain stapling chemistry for peptide drug design” (Chemical Science, 2018).

Like-named read-outs stand apart in the source and are kept apart here. A value given as a limit tells only on which side of the number the result lay.

One data set in a line: circular dichroism. Particulars: phosphate buffer (PB); pH 7.2; 20 °C; 10-50 uM. Background: Circular dichroism is the unequal absorption of left and right circularly polarised light.
For data set [1] the following is noted: the molecule shown is the open-chain precursor; 21-membered ring.
A short description of data set [2]: Dithiocarbamate (DTC) stapling of unprotected peptides: Lys side-chain amine + CS2 (Et3N) gives Lys-NH-C(=S)S-, then intramolecular thia-Michael addition to dehydroalanine (Dha, made beforehand from Cys with 2,5-dibromohexanediamide and HPLC-purified). Particulars: the molecule shown is the open-chain precursor, 21-membered ring, ethanol/Et3N/CS2 10:1:1 v/v.
Another data set has as its target cathepsin G (Homo sapiens, UniProt P08311). Particulars: 100 μM peptide, cell culture medium (RPMI 1640), 25 μg/ml cathepsin G, room temperature, RP-HPLC and ESI-MS. How it is done: and three independent experiments were performed.
Fluorescence polarization (FP).
As an additional positive control, we
Tecan Infinite M1000 plate reader. […]
additional incubation for 64 hours.
Circular Dichroism (CD) Spectroscopy. […]
(§1) from 10-50 μM. […] The spectra were […]
of each peptide was calculated as reported previously. 12
Stability in GSH. […] RP-

The nature of data set [3]: Circular dichroism spectroscopy, helical content. Format: physicochemical. Particulars: CD, PB pH 7.2, 10-50 μM peptide, 20 °C. The protocol:
Circular Dichroism (CD) Spectroscopy.
as §1

cathepsin G, sequence (P08311 21-255, species assumed): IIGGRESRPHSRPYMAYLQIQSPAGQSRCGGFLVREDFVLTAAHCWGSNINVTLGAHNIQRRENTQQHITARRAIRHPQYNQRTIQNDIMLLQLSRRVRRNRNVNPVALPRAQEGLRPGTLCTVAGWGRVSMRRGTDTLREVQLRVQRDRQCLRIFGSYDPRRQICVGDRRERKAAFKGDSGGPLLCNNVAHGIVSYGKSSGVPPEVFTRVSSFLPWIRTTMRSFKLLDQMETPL

`CC(=O)N[C@H](C(=O)N[C@@H](CO)C(=O)N[C@@H](Cc1ccccc1)C(=O)N[C@@H](C)C(=O)N[C@H]1CSC(=S)NCCCC[C@@H](C(=O)N[C@@H](CC(C)C)C(=O)N[C@@H](CO)C(=O)N2CCC[C@H]2C(N)=O)NC(=O)[C@H](CC(N)=O)NC(=O)[C@H](Cc2c[nH]c3ccccc23)NC(=O)[C@H](Cc2ccc(O)cc2)NC1=O)[C@@H](C)O` displayed a helicity in “circular dichroism” of 9.58%.

Molecule `C=C(NC(=O)[C@H](Cc1c[nH]c2ccccc12)NC(=O)[C@H](Cc1ccc(O)cc1)NC(=O)[C@H](CCC(=O)O)NC(=O)[C@H](C)NC(=O)[C@H](Cc1ccccc1)NC(=O)[C@H](CO)NC(=O)[C@@H](NC(C)=O)[C@@H](C)O)C(=O)N[C@@H](CC(C)C)C(=O)N[C@@H](CC(C)C)C(=O)N[C@@H](CO)C(=O)N[C@@H](CCCCNC(=S)S)C(N)=O` [Ac-Thr-Ser-Phe-Ala-Glu-Tyr-Trp-Dha-Leu-Leu-Ser-Lys-NH2] displayed a ring closure, isolated yield in data set [1] of 38%.

In the case of `CC(=O)N[C@H](C(=O)N[C@@H](CO)C(=O)N[C@@H](Cc1ccccc1)C(=O)N[C@@H](C)C(=O)N[C@@H](CCC(=O)O)C(=O)N[C@@H](Cc1ccc(O)cc1)C(=O)N[C@@H](Cc1c[nH]c2ccccc12)C(=O)N[C@H]1CCCCNC(=S)SC[C@@H](C(N)=O)NC(=O)[C@H](CO)NC(=O)[C@H](CC(C)C)NC(=O)[C@H](CC(C)C)NC1=O)[C@@H](C)O`, in the data set “circular dichroism”, the helicity was 43.3%.

`C=C(NC(=O)[C@H](C)NC(=O)[C@H](Cc1ccccc1)NC(=O)[C@H](CO)NC(=O)[C@H](CCCCNC(=S)S)NC(C)=O)C(=O)N[C@@H](Cc1ccc(O)cc1)C(=O)N[C@@H](Cc1c[nH]c2ccccc12)C(=O)N[C@@H](CC(N)=O)C(=O)N[C@@H](CC(C)C)C(=O)N[C@@H](CC(C)C)C(=O)N[C@@H](CO)C(=O)N1CCC[C@H]1C(N)=O` [Ac-Lys-Ser-Phe-Ala-Dha-Tyr-Trp-Asn-Leu-Leu-Ser-Pro-NH2]: the ring closure, isolated yield in data set [2] is 28%.

As to `C=C(NC(=O)[C@H](CO)NC(=O)[C@H](CC(C)C)NC(=O)[C@H](CC(C)C)NC(=O)[C@H](CCCCNC(=S)S)NC(=O)[C@H](Cc1c[nH]c2ccccc12)NC(=O)[C@H](Cc1ccc(O)cc1)NC(=O)[C@H](CCC(=O)O)NC(=O)[C@H](C)NC(=O)[C@H](Cc1ccccc1)NC(=O)[C@H](CO)NC(=O)[C@@H](NC(C)=O)[C@@H](C)O)C(N)=O` [Ac-Thr-Ser-Phe-Ala-Glu-Tyr-Trp-Lys-Leu-Leu-Ser-Dha-NH2], the ring closure, isolated yield in data set [1] turned out to be 45%.

With `CC(=O)N[C@H](C(=O)N[C@@H](CO)C(=O)N[C@@H](Cc1ccccc1)C(=O)N[C@@H](C)C(=O)N[C@@H](CCC(=O)O)C(=O)N[C@@H](Cc1ccc(O)cc1)C(=O)N[C@@H](Cc1c[nH]c2ccccc12)C(=O)N[C@H]1CSC(=S)NCCCC[C@@H](C(N)=O)NC(=O)[C@H](CO)NC(=O)[C@H](CC(C)C)NC(=O)[C@H](CC(C)C)NC1=O)[C@@H](C)O`, the helicity in the data set “circular dichroism” turned out to be 0.23%.

Regarding `C=C(NC(=O)[C@H](CCC(=O)O)NC(=O)[C@H](C)NC(=O)[C@H](Cc1ccccc1)NC(=O)[C@H](CCCCNC(=S)S)NC(=O)[C@@H](NC(C)=O)[C@@H](C)O)C(=O)N[C@@H](Cc1c[nH]c2ccccc12)C(=O)N[C@@H](CC(N)=O)C(=O)N[C@@H](CC(C)C)C(=O)N[C@@H](CC(C)C)C(=O)N[C@@H](CO)C(=O)N1CCC[C@H]1C(N)=O` [Ac-Thr-Lys-Phe-Ala-Glu-Dha-Trp-Asn-Leu-Leu-Ser-Pro-NH2], the ring closure, isolated yield in data set [2] was determined as 34%.

In the case of `C=C(NC(=O)[C@H](Cc1ccccc1)NC(=O)[C@H](CO)NC(=O)[C@@H](NC(C)=O)[C@@H](C)O)C(=O)N[C@@H](CCC(=O)O)C(=O)N[C@@H](Cc1ccc(O)cc1)C(=O)N[C@@H](Cc1c[nH]c2ccccc12)C(=O)N[C@@H](CCCCNC(=S)S)C(=O)N[C@@H](CC(C)C)C(=O)N[C@@H](CC(C)C)C(=O)N[C@@H](CO)C(=O)N1CCC[C@H]1C(N)=O` [Ac-Thr-Ser-Phe-Dha-Glu-Tyr-Trp-Lys-Leu-Leu-Ser-Pro-NH2], the ring closure, isolated yield in data set [2] amounted to 33%.

In the data set “circular dichroism”, `CC(=O)N[C@H](C(=O)N[C@H]1CCCCNC(=S)SC[C@@H](C(=O)N[C@@H](Cc2c[nH]c3ccccc23)C(=O)N[C@@H](CC(N)=O)C(=O)N[C@@H](CC(C)C)C(=O)N[C@@H](CC(C)C)C(=O)N[C@@H](CO)C(=O)N2CCC[C@H]2C(N)=O)NC(=O)[C@H](CCC(=O)O)NC(=O)[C@H](C)NC(=O)[C@H](Cc2ccccc2)NC1=O)[C@@H](C)O` registered a helicity of 15.3%.

`CC(=O)N[C@H]1CSC(=S)NCCCC[C@@H](C(=O)N[C@@H](Cc2ccc(O)cc2)C(=O)N[C@@H](Cc2c[nH]c3ccccc23)C(=O)N[C@@H](CC(N)=O)C(=O)N[C@@H](CC(C)C)C(=O)N[C@@H](CC(C)C)C(=O)N[C@@H](CO)C(=O)N2CCC[C@H]2C(N)=O)NC(=O)[C@H](C)NC(=O)[C@H](Cc2ccccc2)NC(=O)[C@H](CO)NC1=O`: in “circular dichroism”, the helicity is 8.38%.

Molecule `CC(=O)N[C@H](C(=O)N[C@H]1CSC(=S)NCCCC[C@@H](C(=O)N[C@@H](Cc2c[nH]c3ccccc23)C(=O)N[C@@H](CC(N)=O)C(=O)N[C@@H](CC(C)C)C(=O)N[C@@H](CC(C)C)C(=O)N[C@@H](CO)C(=O)N2CCC[C@H]2C(N)=O)NC(=O)[C@H](CCC(=O)O)NC(=O)[C@H](C)NC(=O)[C@H](Cc2ccccc2)NC1=O)[C@@H](C)O` returned a helicity in “circular dichroism” of 4.81%.

On to `C=C(NC(=O)[C@H](Cc1c[nH]c2ccccc12)NC(=O)[C@H](Cc1ccc(O)cc1)NC(=O)[C@H](CCC(=O)O)NC(=O)[C@H](CCCCNC(=S)S)NC(=O)[C@H](Cc1ccccc1)NC(=O)[C@H](CO)NC(=O)[C@@H](NC(C)=O)[C@@H](C)O)C(=O)N[C@@H](CC(C)C)C(=O)N[C@@H](CC(C)C)C(=O)N[C@@H](CO)C(=O)N1CCC[C@H]1C(N)=O` [Ac-Thr-Ser-Phe-Lys-Glu-Tyr-Trp-Dha-Leu-Leu-Ser-Pro-NH2], for which the ring closure, isolated yield in data set [2] was 42%.

As for `C=C(NC(=O)[C@H](C)NC(=O)[C@H](Cc1ccccc1)NC(=O)[C@H](CO)NC(=O)[C@@H](NC(C)=O)[C@@H](C)O)C(=O)N[C@@H](Cc1ccc(O)cc1)C(=O)N[C@@H](Cc1c[nH]c2ccccc12)C(=O)N[C@@H](CC(N)=O)C(=O)N[C@@H](CCCCNC(=S)S)C(=O)N[C@@H](CC(C)C)C(=O)N[C@@H](CO)C(=O)N1CCC[C@H]1C(N)=O` [Ac-Thr-Ser-Phe-Ala-Dha-Tyr-Trp-Asn-Lys-Leu-Ser-Pro-NH2], the ring closure, isolated yield in data set [2] is 27%.

Take Ac-TSFAEYWNLLSP-NH2 [PMI-0]: the “time to full degradation by cathepsin G” value at cathepsin G is given as no more than 30 min. The “α-Helix (%)” value in data set [3] worked out at 9.77%.

`C=C(NC(C)=O)C(=O)N[C@@H](CO)C(=O)N[C@@H](Cc1ccccc1)C(=O)N[C@@H](C)C(=O)N[C@@H](CCCCNC(=S)S)C(=O)N[C@@H](Cc1ccc(O)cc1)C(=O)N[C@@H](Cc1c[nH]c2ccccc12)C(=O)N[C@@H](CC(N)=O)C(=O)N[C@@H](CC(C)C)C(=O)N[C@@H](CC(C)C)C(=O)N[C@@H](CO)C(=O)N1CCC[C@H]1C(N)=O` [Ac-Dha-Ser-Phe-Ala-Lys-Tyr-Trp-Asn-Leu-Leu-Ser-Pro-NH2]: the ring closure, isolated yield in data set [2] stood at 37%.

In the data set “circular dichroism”, `CC(=O)N[C@H](C(=O)N[C@@H](CO)C(=O)N[C@@H](Cc1ccccc1)C(=O)N[C@@H](C)C(=O)N[C@H]1CCCCNC(=S)SC[C@@H](C(=O)N[C@@H](CC(C)C)C(=O)N[C@@H](CO)C(=O)N2CCC[C@H]2C(N)=O)NC(=O)[C@H](CC(N)=O)NC(=O)[C@H](Cc2c[nH]c3ccccc23)NC(=O)[C@H](Cc2ccc(O)cc2)NC1=O)[C@@H](C)O` gave a helicity of 6.88%.

Regarding `C=C(NC(=O)[C@H](Cc1c[nH]c2ccccc12)NC(=O)[C@H](Cc1ccc(O)cc1)NC(=O)[C@H](CCC(N)=O)NC(=O)[C@H](CCCCNC(=S)S)NC(=O)[C@H](Cc1ccccc1)NC(=O)[C@H](CO)NC(=O)[C@@H](NC(C)=O)[C@@H](C)O)C(=O)N[C@@H](CC(C)C)C(=O)N[C@@H](CC(C)C)C(=O)N[C@@H](CO)C(=O)N[C@@H](CCCNC(=N)N)C(N)=O` [Ac-Thr-Ser-Phe-Lys-Gln-Tyr-Trp-Dha-Leu-Leu-Ser-Arg-NH2], the ring closure, isolated yield in data set [2] was found to be 46%.

In “circular dichroism”, `CC(=O)N[C@H](C(=O)N[C@@H](CO)C(=O)N[C@@H](Cc1ccccc1)C(=O)N[C@H]1CSC(=S)NCCCC[C@@H](C(=O)N[C@@H](CC(C)C)C(=O)N[C@@H](CC(C)C)C(=O)N[C@@H](CO)C(=O)N2CCC[C@H]2C(N)=O)NC(=O)[C@H](Cc2c[nH]c3ccccc23)NC(=O)[C@H](Cc2ccc(O)cc2)NC(=O)[C@H](CCC(=O)O)NC1=O)[C@@H](C)O` yielded a helicity of 9.15%.

For the molecule `C=C(NC(=O)[C@H](CC(N)=O)NC(=O)[C@H](Cc1c[nH]c2ccccc12)NC(=O)[C@H](Cc1ccc(O)cc1)NC(=O)[C@H](CCCCNC(=S)S)NC(=O)[C@H](C)NC(=O)[C@H](Cc1ccccc1)NC(=O)[C@H](CO)NC(=O)[C@@H](NC(C)=O)[C@@H](C)O)C(=O)N[C@@H](CC(C)C)C(=O)N[C@@H](CO)C(=O)N1CCC[C@H]1C(N)=O` [Ac-Thr-Ser-Phe-Ala-Lys-Tyr-Trp-Asn-Dha-Leu-Ser-Pro-NH2], the ring closure, isolated yield in data set [2] worked out at 24%.

`CC(=O)N[C@H](C(=O)N[C@@H](CO)C(=O)N[C@@H](Cc1ccccc1)C(=O)N[C@H]1CCCCNC(=S)SC[C@@H](C(=O)N[C@@H](CC(C)C)C(=O)N[C@@H](CC(C)C)C(=O)N[C@@H](CO)C(=O)N2CCC[C@H]2C(N)=O)NC(=O)[C@H](Cc2c[nH]c3ccccc23)NC(=O)[C@H](Cc2ccc(O)cc2)NC(=O)[C@H](CCC(=O)O)NC1=O)[C@@H](C)O` displayed a helicity in the data set “circular dichroism” of 39.3%.

Turning to `C=C(NC(=O)[C@@H](NC(C)=O)[C@@H](C)O)C(=O)N[C@@H](Cc1ccccc1)C(=O)N[C@@H](C)C(=O)N[C@@H](CCC(=O)O)C(=O)N[C@@H](CCCCNC(=S)S)C(=O)N[C@@H](Cc1c[nH]c2ccccc12)C(=O)N[C@@H](CC(N)=O)C(=O)N[C@@H](CC(C)C)C(=O)N[C@@H](CC(C)C)C(=O)N[C@@H](CO)C(=O)N1CCC[C@H]1C(N)=O` [Ac-Thr-Dha-Phe-Ala-Glu-Lys-Trp-Asn-Leu-Leu-Ser-Pro-NH2], the ring closure, isolated yield in data set [2] was 39%.
